Assay results: patent publication USRE36481E, “HMG-CoA reductase inhibitors” (Merck & Co., Inc., priority 1998, dated 2000)

tested on: HMG-CoA reductase; experiment: HMG-CoA Reductase Inhibition Assay (in vitro, relative to compactin); type: biochemical; conditions: IC50 compared with compactin determined simultaneously, compactin assigned 100; tested as sodium salt of dihydroxy acid form; solubilized rat liver microsomal enzyme
Description: The intrinsic HMG-CoA reductase inhibition activity of the claimed compounds is measured in the in vitro protocol published in J. Med. Chem., 28, p. […] (1985) and described below: Male Holtzman Sprague-Dawley rats (225-250 g) were kept on reversed lighting and fed Purina rat chow containing 3% cholestyramine for 7 days preceding their sacrifice by CO2 asphyxiation. Livers were removed 6 hours into the dark cycle and used immediately to prepare microsomes. HMG-CoA reductase was solubilized from the freshly prepared microsomes by the method of Heller and Shrewsbury [J. Biol. Chem., 1976, 251, 3815]and purified through the second ammonium sulfate precipitation step as described by Kleinsek et al. [Proc. Natl. Acad. Sci. USA, 1977, 74, 1431]. […] The enzyme preparation was stored at -80° C. The assay is essentially the procedure of Shefer et al. [J. Lipid Res., 1972, 13, 402]. The complete assay medium contained the following in a total volume of 0.8 ml: phosphate buffer, pH 7.2, 100 mM; MgCl2, 3 mM; NADP, 3 mM; glucose-6-phosphate, 10 mM; glucose-6-phosphate dehydro-genase, 3 enzyme units; reduced glutathione 50 mM; HMG-CoA (glutaryl-3-^14 C, New England Nuclear), 0.2 mM (0.1 μCi); and partially purified enzyme stock solution, 100 μL. […] After a 40-minute incubation at 37° C. with shaking and exposure to air, the reaction was stopped by the addition of 0.4 mL of 8 N HCl. After an additional 30-minute incubation period at 37° C. to ensure the complete lactonization of mevalonic acid to mevalonolactone, 0.2 ml of the mixture was added to an 0.5×5.0 cm column containing 100-200 mesh Bio-Rex 5, chloride form (Bio-Rad), wetted with distilled water, as described by Alberts et al. [Proc. Natl. Acad. Sci. U.S.A., 1980, 77, 3967]. The unreacted [^14 C]HMG-CoA was absorbed on the resin and the [^14 C]mevalonolactone was eluted with distilled water (2×1 ml) directly into 7-ml scintillation vials. Five milliliters of Aquasol-2 (New England Nuclear) was added to each vial, and radioactivity was measured in a Packard Tri Carb Prias scintillation counter. IC50 values were determined by plotting percentage inhibition against test compound concentration and fitting a straight line to the resulting data by using the least-squares method.

Relative Potency	Structure (SMILES)
189	CCC(C)(C)C(=O)O[C@H]1C[C@H](CO)C=C2C=C[C@H](C)[C@H](CC[C@@H](O)C[C@@H](O)CC(=O)O)[C@H]21 [db -- db S CH2 OH 1,1-dimethylpropyl]
220	CCC(C)(C)C(=O)O[C@H]1C[C@@H](C(O)c2ccccc2)C[C@@H]2CC[C@H](C)[C@H](CC[C@@H](O)C[C@@H](O)CC(=O)O)[C@H]21 (single isomer, unassigned) [-- -- -- S CHOHPH 1,1-dimethylpropyl]
33	C[C@H]1CC[C@H]2C[C@H](CO)C[C@H](OC(=O)C3CCCCC3)[C@@H]2[C@H]1CC[C@@H](O)C[C@@H](O)CC(=O)O [-- -- -- S CH2 OH cyclohexyl]
47	CCC(C)C(=O)O[C@H]1C[C@@H](CO)C=C2C=C[C@H](C)[C@H](CC[C@@H](O)C[C@@H](O)CC(=O)O)[C@H]21 (stereo partly shown) [db -- db R CH2 OH sec-butyl]
104	CCC(C)(C)C(=O)O[C@H]1C[C@H](C(C)O)C[C@@H]2CC[C@H](C)[C@H](CC[C@@H](O)C[C@@H](O)CC(=O)O)[C@H]21 (single isomer, unassigned) [-- -- -- R CHOHCH3 (ISOMER B) 1,1-dimethylpropyl]
82	CCC(C)(C)C(=O)O[C@H]1C[C@H](C(=O)N(C)C)C=C2C=C[C@H](C)[C@H](CC[C@@H](O)C[C@@H](O)CC(=O)O)[C@H]21 [db -- db S CONMe2 1,1-dimethylpropyl]
94	CCC(C)(C)C(=O)O[C@H]1C[C@@H](C(=O)O)C=C2C=C[C@H](C)[C@H](CC[C@@H](O)C[C@@H](O)CC(=O)O)[C@H]21 [db -- db R CO2 H 1,1-dimethylpropyl]
65	CCN(CC)C(=O)[C@@H]1C=C2C=C[C@H](C)[C@H](CC[C@@H](O)C[C@@H](O)CC(=O)O)[C@H]2[C@@H](OC(=O)C(C)(C)CC)C1 [db -- db S CONEt2 1,1-dimethylpropyl]
111	CCC(C)(C)C(=O)O[C@H]1C[C@H](C(C)O)C[C@@H]2CC[C@H](C)[C@H](CC[C@@H](O)C[C@@H](O)CC(=O)O)[C@H]21 (single isomer, unassigned) [-- -- -- R CHOHCH3 (ISOMER A) 1,1-dimethylpropyl]
125	CCOC(=O)[C@H]1C[C@@H]2CC[C@H](C)[C@H](CC[C@@H](O)C[C@@H](O)CC(=O)O)[C@H]2[C@@H](OC(=O)C(C)(C)CC)C1 [-- -- -- S CO2 Et 1,1-dimethylpropyl]
107	CCC(C)(C)C(=O)O[C@H]1C[C@@H](C(N)=O)C[C@@H]2CC[C@H](C)[C@H](CC[C@@H](O)C[C@@H](O)CC(=O)O)[C@H]21 [-- -- -- S CONH2 1,1-dimethylpropyl]
726	CCC(C)(C)C(=O)O[C@H]1C[C@H](COC(=O)Nc2ccccc2)C=C2C=C[C@H](C)[C@H](CC[C@@H](O)C[C@@H](O)CC(=O)O)[C@H]21
131	CCC(C)(C)C(=O)O[C@H]1C[C@@H](C(C)O)C[C@@H]2CC[C@H](C)[C@H](CC[C@@H](O)C[C@@H](O)CC(=O)O)[C@H]21 (single isomer, unassigned) [-- -- -- S CHOHCH3 (ISOMER A) 1,1-dimethylpropyl]
75	CCC(C)(C)C(=O)O[C@H]1C[C@@H](C(=O)N(C)C)C[C@@H]2CC[C@H](C)[C@H](CC[C@@H](O)C[C@@H](O)CC(=O)O)[C@H]21 [-- -- -- S CONMe2 1,1-dimethylpropyl]
100	CCC(C)(C)C(=O)O[C@H]1C[C@@H](C(=O)N(C(=O)NC2CCCCC2)C2CCCCC2)C[C@@H]2CC[C@H](C)[C@H](CC[C@@H](O)C[C@@H](O)CC(=O)O)[C@H]21
80	CCC(C)(C)C(=O)O[C@H]1C[C@@H](C(=O)OC(C)C)C[C@@H]2CC[C@H](C)[C@H](CC[C@@H](O)C[C@@H](O)CC(=O)O)[C@H]21 [-- -- -- S CO2 i-Pr 1,1-dimethylpropyl]
99	CCC(C)(C)C(=O)O[C@H]1C[C@H](C(=O)O)C=C2C=C[C@H](C)[C@H](CC[C@@H](O)C[C@@H](O)CC(=O)O)[C@H]21 [db -- db S CO2 H 1,1-dimethylpropyl]
26	CCC(C)C(=O)O[C@H]1C[C@H](C(=O)O)C=C2C=C[C@H](C)[C@H](CC[C@@H](O)C[C@@H](O)CC(=O)O)[C@H]21 (stereo partly shown) [db -- db S CO2 H sec-butyl]
86	CCC(C)(C)C(=O)O[C@H]1C[C@@H](CO)C[C@@H]2CC[C@H](C)[C@H](CC[C@@H](O)C[C@@H](O)CC(=O)O)[C@H]21 [-- -- -- S CH2 OH 1,1-dimethylpropyl]
79	CCC(C)(C)C(=O)O[C@H]1C[C@@H](C(=O)O)C[C@@H]2CC[C@H](C)[C@H](CC[C@@H](O)C[C@@H](O)CC(=O)O)[C@H]21 [-- -- -- S CO2 H 1,1-dimethylpropyl]
33	CCC(C)(C)C(=O)OC[C@H]1C=C2CC[C@H](C)[C@H](CC[C@@H](O)C[C@@H](O)CC(=O)O)[C@H]2[C@@H](OC(=O)C(C)(C)CC)C1
100	CCC(C)(C)C(=O)OC[C@H]1C[C@@H]2CC[C@H](C)[C@H](CC[C@@H](O)C[C@@H](O)CC(=O)O)[C@H]2[C@@H](OC(=O)C(C)(C)CC)C1
213	CCC(C)(C)C(=O)O[C@H]1C[C@@H](CO)C=C2CC[C@H](C)[C@H](CC[C@@H](O)C[C@@H](O)CC(=O)O)[C@H]21 [db -- -- R CH2 OH 1,1-dimethylpropyl]
113	CCC(C)(C)C(=O)O[C@H]1C[C@@H](C(C)O)C[C@@H]2CC[C@H](C)[C@H](CC[C@@H](O)C[C@@H](O)CC(=O)O)[C@H]21 (single isomer, unassigned) [-- -- -- S CHOHCH3 (ISOMER B) 1,1-dimethylpropyl]

tested on: not listed separately; experiment: Standing of the free dihydroxy acid (reversion to lactone); type: physicochemical; conditions: free dihydroxy acid after isolation; can be maintained by increasing the pH above 7.0
Description: The sodium salt of the compound II from Example 64 is dissolved in 2 ml of ethanol-water (1:1; v:v) and added to 10 ml of 1N hydrochloric acid from which the dihydroxy acid is extracted with ethyl acetate. The organic extract is washed once with water, dried (Na2 SO4), and evaporated in vacuo with a bath temperature not exceeding 30° C. […] The dihydroxy acid can be maintained by increasing the pH above 7.0.

Structure (SMILES)	stability of the dihydroxy acid on standing
CCC(C)(C)C(=O)O[C@H]1C[C@@H](CO)C[C@@H]2CC[C@H](C)[C@H](CC[C@@H](O)C[C@@H](O)CC(=O)O)[C@H]21 [Example 70]	slowly reverts to the corresponding,parent lactone on standing
